Reference: patent US20250092065A1, “2-(INDAZOL-5-YL)-6-(PIPERIDIN-4-YL)-1,7-NAPHTHYRIDINE DERIVATIVES AND RELATED COMPOUNDS AS MODULATORS FOR SPLICING NUCLEIC ACIDS AND FOR THE TREATMENT OF PROLIFERATIVE DISEASES” (REMIX THERAPEUTICS INC., priority 2022, published 2025)
Where two headings read alike, the source gives them in different places.

Key:
[1] = system: Target C; assay: HiBiT protein abundance assay, Target C (K562 HiBiT knock-in); assay type: cell-based, human; conditions: HiBiT knock-in K562 cells, 24 hours, top dose 10 μM
Procedure, shortened: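 K562 HiBiT knock-in cells (10000/well) were treated 24 h at 37° C with a 10-point 3-fold dilution series (top 10 μM final, ≤0.25% DMSO). HiBiT luminescence was read after lytic LgBiT detection. Percent response used unmodified K562 and DMSO-treated knock-in controls, and IC50 came from a four-parameter fit at 50% of untreated.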

[2] = system: MYB; assay: HiBiT protein abundance assay, MYB (K562 HiBiT knock-in); assay type: cell-based, human; conditions: HiBiT knock-in K562 cells, 24 hours, top dose 10 μM
Procedure, shortened: (§1)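 K562 HiBiT knock-in, 24 h, 37 °C, top 10 μM final, 3-fold ×10, DMSO ≤0.25%. Lytic HiBiT luminescence; PC = parental K562, NC = DMSO; 4PL IC50.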

[3] = system: HTT mRNA; assay: RT-qPCR splicing assay, HTT mRNA canonical (CJ) and alternative (AJ) junction; assay type: cell-based, human; conditions: Homo sapiens; for AC50: HTT alternative junction mRNA, read-out: HTT AJ (increase in AJ mRNA, AC50)
Procedure, shortened: (§2)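 Both isoforms, CJ and AJ, read by qPCR from crude lysates of treated A673 or K562 cells; 24 h, 37 °C, maximum 10 uM. Normalization: housekeeper ΔCt, then DMSO ΔΔCt.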

[4] = system: MYB mRNA; assay: RT-qPCR splicing assay, MYB mRNA canonical (CJ) and alternative (AJ) junction; assay type: cell-based, human; conditions: Homo sapiens; for AC50: MYB alternative junction mRNA, read-out: MYB AJ (increase in AJ mRNA, AC50)
Procedure, shortened: as §2

[5] = system: K562 cells; assay: Cell Titer Glo 2.0 cell viability (toxicity) assay, K562; conditions: 500 cells/well, 72 hours
[6] = system: HTT; assay: HiBiT protein abundance assay, HTT (K562 HiBiT knock-in); assay type: cell-based, human; conditions: HiBiT knock-in K562 cells, 24 hours, top dose 10 μM
Procedure, shortened: as §1

[7] = system: SMN2 mRNA; assay: RT-qPCR splicing assay, SMN2 mRNA; assay type: cell-based, human; conditions: Homo sapiens, canonical junction qPCR panel, Table 4; read-out: SMN2 IC50 (decrease in CJ mRNA levels)
Procedure, shortened: as §2

[8] = HTT canonical junction mRNA, RT-qPCR, read-out: HTT CJ (decrease in CJ mRNA levels, IC50)
[9] = canonical junction qPCR panel, Table 4, read-out: HTT IC50 (decrease in CJ mRNA levels)
[10] = MYB canonical junction mRNA, RT-qPCR, read-out: MYB CJ (decrease in CJ mRNA levels, IC50)
[11] = canonical junction qPCR panel, Table 4, read-out: MYB IC50 (decrease in CJ mRNA levels)

IC50 [1] | IC50 [2] | IC50 [3, 8] | IC50 [3, 9] | IC50 [4, 10] | IC50 [4, 11] | IC50 [6] | IC50 [7] | SMILES | AC50 ([3]; RT-qPCR) | AC50 ([4]; RT-qPCR) | Effect of Exemplary Compounds on Cell Viability, K562 [5]
< 100 nM | < 100 nM | < 100 nM | < 100 nM | < 100 nM | < 100 nM | < 100 nM | < 100 nM | Cn1cc2cc(-c3ccc4nc(N5CC[C@@H](NC6(C)CC6)C5)ccc4n3)c(O)c(F)c2n1 [Compound 223] | < 100 nM | < 100 nM | A (A represents <100 nM)
< 100 nM | < 100 nM | < 100 nM | < 100 nM | < 100 nM | < 100 nM | < 100 nM | < 100 nM | Cc1c(O)c(-c2ccc3nc(N4CCC(NC5(C)CC5)C4)ccc3n2)cc2cn(C)nc12 (stereo not drawn) [Compound 224] | < 100 nM | < 100 nM | B (B represents 100-1000 nM)
< 100 nM | < 100 nM | < 100 nM | < 100 nM | < 100 nM | < 100 nM | < 100 nM | < 100 nM | Cc1c(O)c(-c2ccc3nc(N4CC[C@@H](NC5(C)CC5)C4)ccc3n2)cc2cn(C)nc12 [Compound 225] | < 100 nM | < 100 nM | B (B represents 100-1000 nM)
< 100 nM | < 100 nM | < 100 nM | < 100 nM | < 100 nM | < 100 nM | < 100 nM | < 100 nM | Cc1c(O)c(-c2ccc3nc(N4CC[C@H](NC5(C)CC5)C4)ccc3n2)cc2cn(C)nc12 [Compound 226] | < 100 nM | 100 to 1000 nM | B (B represents 100-1000 nM)
100 to 1000 nM | < 100 nM | < 100 nM | < 100 nM | 100 to 1000 nM | 100 to 1000 nM | < 100 nM | < 100 nM | Cc1nc2cc(O)c(-c3ccc4nc(N5CCC(NC6CCC6)C5)ccc4n3)cc2o1 (stereo not drawn) [Compound 228] | < 100 nM | < 100 nM | B (B represents 100-1000 nM)
< 100 nM | < 100 nM | < 100 nM | < 100 nM | < 100 nM | < 100 nM | < 100 nM | < 100 nM | Cc1nc2cc(O)c(-c3ccc4nc(N5CC[C@@H](NC(C)C)C5)ccc4n3)cc2o1 [Compound 232] | < 100 nM | < 100 nM | A (A represents <100 nM)
< 100 nM | < 100 nM | < 100 nM | < 100 nM | < 100 nM | < 100 nM | < 100 nM | < 100 nM | Cc1nc2cc(O)c(-c3ccc4nc(N5CC[C@H](NC(C)C)C5)ccc4n3)cc2o1 [Compound 233] | < 100 nM | < 100 nM | B (B represents 100-1000 nM)
< 100 nM | < 100 nM | 100 to 1000 nM | 100 to 1000 nM | 100 to 1000 nM | 100 to 1000 nM | < 100 nM | < 100 nM | Cc1nc2cc(O)c(-c3ccc4nc(N5CCC(N)C5)ccc4n3)cc2o1 (stereo not drawn) [Compound 234] | < 100 nM | < 100 nM | A (A represents <100 nM)
< 100 nM | < 100 nM | < 100 nM | < 100 nM | < 100 nM | < 100 nM | < 100 nM | < 100 nM | Cn1cc2cc(-c3ccc4nc(N5CCC(N)C5)ccc4n3)c(O)c(F)c2n1 (stereo not drawn) [Compound 238] | < 100 nM | < 100 nM | A (A represents <100 nM)
